One may read the IC50 as the point on the concentration scale where inhibition reaches its midpoint. A lower IC50 goes with inhibition by little substance.

The source of these data is ChEMBL document CHEMBL4354860, “Targeting the Regulatory Site of ER Aminopeptidase 1 Leads to the Discovery of a Natural Product Modulator of Antigen Presentation” (J Med Chem, 2020).

This assay concerns the target Endoplasmic reticulum aminopeptidase 2 (Homo sapiens, UniProt Q6P179). Nature of the assay: Activation of ERAP2 (unknown origin)-mediated Arg-AMC substrate hydrolysis after 60 mins by Rapidfire-MS analysis.

Sequence of Endoplasmic reticulum aminopeptidase 2 (Q6P179 whole entry): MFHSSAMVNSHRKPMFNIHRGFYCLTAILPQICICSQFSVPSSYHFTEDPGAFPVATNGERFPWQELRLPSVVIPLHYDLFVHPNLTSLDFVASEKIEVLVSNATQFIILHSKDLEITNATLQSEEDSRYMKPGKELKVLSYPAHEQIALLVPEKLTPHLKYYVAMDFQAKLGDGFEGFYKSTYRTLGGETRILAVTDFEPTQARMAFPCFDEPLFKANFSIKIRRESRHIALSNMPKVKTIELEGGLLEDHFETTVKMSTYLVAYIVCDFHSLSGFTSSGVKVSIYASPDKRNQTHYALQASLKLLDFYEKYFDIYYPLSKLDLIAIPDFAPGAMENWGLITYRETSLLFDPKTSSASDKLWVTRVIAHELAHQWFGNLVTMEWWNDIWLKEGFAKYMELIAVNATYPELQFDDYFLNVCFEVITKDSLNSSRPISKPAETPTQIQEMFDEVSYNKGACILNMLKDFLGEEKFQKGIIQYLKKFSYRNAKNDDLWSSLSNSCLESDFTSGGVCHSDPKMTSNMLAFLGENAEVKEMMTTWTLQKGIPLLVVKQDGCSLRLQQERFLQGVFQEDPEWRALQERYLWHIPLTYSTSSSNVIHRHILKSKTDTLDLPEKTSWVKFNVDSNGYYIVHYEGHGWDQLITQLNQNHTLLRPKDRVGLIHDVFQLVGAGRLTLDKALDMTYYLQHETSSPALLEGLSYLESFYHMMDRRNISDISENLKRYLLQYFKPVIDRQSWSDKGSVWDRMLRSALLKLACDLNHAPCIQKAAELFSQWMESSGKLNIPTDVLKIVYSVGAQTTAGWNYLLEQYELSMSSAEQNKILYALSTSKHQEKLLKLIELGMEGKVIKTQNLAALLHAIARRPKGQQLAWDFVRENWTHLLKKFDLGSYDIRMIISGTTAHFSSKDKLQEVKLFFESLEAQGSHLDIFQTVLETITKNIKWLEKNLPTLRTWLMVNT

Regarding `C[C@@H]1C[C@H](O)[C@@]2(C)C(C(=O)O)=CCC[C@@H]2[C@@]1(C)CCc1ccoc1`, the IC50 is > 158 µM.
